Reference: patent publication US12606541B2, “PPARg modulators and methods of use” (Eisai R&D Management Co., Ltd., priority 2020, dated 2026)
Where two headings read alike, the source gives them in different places.

Experiments:
His6-TEV-PPARγ-(234-505) = biological target: T1, His6-TEV-PPARγ-(234-505) (Homo sapiens, UniProt P37231); assay: TR-FRET Assay to Measure Co-R Peptide Recruitment to PPARγ; type: biochemical; conditions: Co-R peptide (SMRT-ID2) recruitment; top final concentration 20 μM; read-out: TR-FRET i-Ag; AC50
T1 construct: The His6-TEV-PPARγ-(234-505) protein for assay was expressed and purified; TEV cleavage site (N); made in house
T1 sequence (P37231 234-505): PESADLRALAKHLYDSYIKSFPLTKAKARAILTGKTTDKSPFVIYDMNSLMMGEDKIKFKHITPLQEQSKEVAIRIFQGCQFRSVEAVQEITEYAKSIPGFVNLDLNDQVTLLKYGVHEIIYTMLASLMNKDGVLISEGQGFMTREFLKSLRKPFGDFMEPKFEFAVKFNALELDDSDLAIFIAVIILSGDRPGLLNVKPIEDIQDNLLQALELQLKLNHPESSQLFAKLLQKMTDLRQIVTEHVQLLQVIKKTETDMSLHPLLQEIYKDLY
Procedure, shortened: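 His-tagged PPARγ (or controls) was preincubated with compound for 20 minutes at room temperature, then 5 nM anti-His terbium antibody and 200 nM FITC-labeled SMRT-ID2 corepressor peptide (final) were added for a further hour. TR-FRET signal was normalized to percent response using 500 nM T0070907 and DMSO controls.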

UM-UC-9 engineered cells = assay: Cell proliferation / short-term viability assay, CellTiter-Glo 144 h; type: cell-based, human; conditions: read-out: CTGlo 144 h UMUC9.5, G150
Procedure, shortened: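 UM-UC-9 engineered assay-ready cells seeded at 500 cells/well in high-glucose DMEM/10% FBS, treated from dose-response plates, grown at 37° C, 5% CO2. CellTiter-Glo 2.0 luminescence read on day 7, with a day-0 pretreatment plate as T0 reference and DMSO wells as negative control.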

COc1cc(-c2cc(C(=O)N3CCC(C(=O)NC4CCN(c5ccc(C#N)cn5)C4)CC34CC4)n[nH]2)c(F)cn1 (mixture of isomers) [Example 489, (S)—N—((R)-1-(5-cyanopyridin-2-yl)pyrrolidin-3-yl)-4-(5-(5-fluoro-2-methoxypyridin-4-yl)-1H-pyrazole-3-carbonyl)-4-azaspiro[2.5]octane-7-carboxamide and (S)—N—((S)-1-(5-cyanopyridin-2-yl)pyrrolidin-3-yl)-4-(5-(5-fluoro-2-methoxypyridin-4-yl)-1H-pyrazole-3-carbonyl)-4-azaspiro[2.5]octane-7-carboxamide]
AC50 (His6-TEV-PPARγ-(234-505)): 0.7 nM
IC50 (UM-UC-9 engineered cells): 5.5 nM

COc1cc(-c2cc(C(=O)N3CCC(C(=O)NCc4cc5ccccc5[nH]4)CC3)n[nH]2)c(Cl)cn1 [Example 250, N-((1H-indol-2-yl)methyl)-1-(5-(5-chloro-2-methoxypyridin-4-yl)-1H-pyrazole-3-carbonyl)piperidine-4-carboxamide]
AC50 (His6-TEV-PPARγ-(234-505)): 24.7 nM
IC50 (UM-UC-9 engineered cells; Homo sapiens, UM-UC-9, 144 h): 430 nM

CO[C@]1(C(F)(F)F)CC[C@@H](NC(=O)[C@H]2CCN(C(=O)c3cc(-c4cc(C)ncc4F)[nH]n3)C3(CC3)C2)CC1 (single isomer, unassigned) [Example 293-C]
AC50 (His6-TEV-PPARγ-(234-505)): 2.8 nM
IC50 (UM-UC-9 engineered cells; Homo sapiens, UM-UC-9, 144 h): 1.6 nM

COc1cc(-c2cc(C(=O)N3CCC(C(=O)NC4CCC(OCC(C)OC)(C(F)(F)F)CC4)CC34CC4)n[nH]2)c(F)cn1 (single isomer, unassigned) [Example 340-B]
AC50 (His6-TEV-PPARγ-(234-505)): 19 nM
IC50 (UM-UC-9 engineered cells): 10.7 nM

COc1cc(-c2cc(C(=O)N3CC[C@H](C(=O)NC4CCN(C5COC56CNC6)C4)CC34CC4)n[nH]2)c(F)cn1 (single isomer, unassigned) [Example 461-A]
AC50 (His6-TEV-PPARγ-(234-505)): 272 nM
IC50 (UM-UC-9 engineered cells): > 10000 nM

COc1cc(-c2cc(C(=O)N3CCC(C(=O)NC4CCC(O)(C(F)(F)F)CC4)CC3(C)C)n[nH]2)c(F)cn1 (single isomer, unassigned) [Example 407-B]
AC50 (His6-TEV-PPARγ-(234-505)): 1690 nM
IC50 (UM-UC-9 engineered cells): 1340 nM

COc1cc(-c2cc(C(=O)N3CC[C@H](C(=O)NCc4nnc(C)cc4C)CC34CC4)n[nH]2)c(F)cn1 [Example 412, (S)—N-((4,6-dimethylpyridazin-3-yl)methyl)-4-(5-(5-fluoro-2-methoxypyridin-4-yl)-1H-pyrazole-3-carbonyl)-4-azaspiro[2.5]octane-7-carboxamide]
AC50 (His6-TEV-PPARγ-(234-505)): 79.2 nM
IC50 (UM-UC-9 engineered cells; Homo sapiens, UM-UC-9, 144 h): 198 nM

COc1cc(-c2cc(C(=O)N3CCC(C(=O)NC4CCN(c5ccccc5F)C4)CC3)n[nH]2)c(Cl)cn1 (racemic) [Example 222, 1-(5-(5-chloro-2-methoxypyridin-4-yl)-1H-pyrazole-3-carbonyl)-N-(1-(2-fluorophenyl)pyrrolidin-3-yl)piperidine-4-carboxamide]
AC50 (His6-TEV-PPARγ-(234-505)): 18.5 nM
IC50 (UM-UC-9 engineered cells; Homo sapiens, UM-UC-9, 144 h): 208 nM

Cc1cc(-c2cc(C(=O)N3CCC(C(=O)NCc4cccc(Cl)c4)CC3)n[nH]2)c(Cl)cn1 [Example 262, 1-[5-(5-chloro-2-methylpyridin-4-yl)-1H-pyrazole-3-carbonyl]-N-[(3-chlorophenyl)methyl]piperidine-4-carboxamide]
AC50 (His6-TEV-PPARγ-(234-505)): 29.2 nM
IC50 (UM-UC-9 engineered cells; Homo sapiens, UM-UC-9, 144 h): 332 nM

COc1cc(-c2cc(C(=O)N3CC[C@H](C(=O)NCc4ncc(N5CC(C#N)C5)cc4Cl)CC34CC4)n[nH]2)c(F)cn1 [Example 393, (S)—N-((3-chloro-5-(3-cyanoazetidin-1-yl)pyridin-2-yl)methyl)-4-(5-(5-fluoro-2-methoxypyridin-4-yl)-1H-pyrazole-3-carbonyl)-4-azaspiro[2.5]octane-7-carboxamide]
AC50 (His6-TEV-PPARγ-(234-505)): 9.2 nM
IC50 (UM-UC-9 engineered cells; Homo sapiens, UM-UC-9, 144 h): 106 nM

COc1cc(-c2cc(C(=O)N3CC[C@H](C(=O)NCc4ccc5c(c4)B(O)OC5(C)C)CC34CC4)[nH]n2)c(F)cn1 [Example 522, (S)-4-(3-(5-fluoro-2-methoxypyridin-4-yl)-1H-pyrazole-5-carbonyl)-N-((1-hydroxy-3,3-dimethyl-1,3-dihydrobenzo[c][1,2]oxaborol-6-yl)methyl)-4-azaspiro[2.5]octane-7-carboxamide]
AC50 (His6-TEV-PPARγ-(234-505)): 1.4 nM
IC50 (UM-UC-9 engineered cells; Homo sapiens, UM-UC-9, 144 h): 14.3 nM

COc1cc(-c2cc(C(=O)N3CC[C@H](C(=O)NCc4ncccc4Cl)CC34CC4)n[nH]2)c(F)cn1 [Example 358, (S)—N-((3-chloropyridin-2-yl)methyl)-4-(5-(5-fluoro-2-methoxypyridin-4-yl)-1H-pyrazole-3-carbonyl)-4-azaspiro[2.5]octane-7-carboxamide]
AC50 (His6-TEV-PPARγ-(234-505)): 5.1 nM
IC50 (UM-UC-9 engineered cells; Homo sapiens, UM-UC-9, 144 h): 3.4 nM

COc1cc(-c2cc(C(=O)N3CCC(C(=O)NC4CCC(C)(C)N(C)C4)CC34CC4)n[nH]2)c(F)cn1 (mixture of isomers) [Example 424, (S)-4-(5-(5-fluoro-2-methoxypyridin-4-yl)-1H-pyrazole-3-carbonyl)-N—((R)-1,6,6-trimethylpiperidin-3-yl)-4-azaspiro[2.5]octane-7-carboxamide and (S)-4-(5-(5-fluoro-2-methoxypyridin-4-yl)-1H-pyrazole-3-carbonyl)-N—((S)-1,6,6-trimethylpiperidin-3-yl)-4-azaspiro[2.5]octane-7-carboxamide]
AC50 (His6-TEV-PPARγ-(234-505)): 942 nM
IC50 (UM-UC-9 engineered cells): 1950 nM

COc1cc(-c2cc(C(=O)N3CCC(C(=O)Nc4cnn(CC(F)(F)F)c4)CC3)n[nH]2)c(Cl)cn1 [Example 126, 1-(5-(5-chloro-2-methoxypyridin-4-yl)-1H-pyrazole-3-carbonyl)-N-(1-(2,2,2-trifluoroethyl)-1H-pyrazol-4-yl)piperidine-4-carboxamide]
AC50 (His6-TEV-PPARγ-(234-505)): 707 nM
IC50 (UM-UC-9 engineered cells; Homo sapiens, UM-UC-9, 144 h): 2460 nM

(S)-4-(5-(2-chloro-5-fluoropyridin-4-yl)-1H-pyrazole-3-carbonyl)-N-((1r,4S)-4-hydroxy-4-(trifluoromethyl)cyclohexyl)-4-azaspiro[2.5]octane-7-carboxamide and (R)-4-(5-(2-chloro-5-fluoropyridin-4-yl)-1H-pyrazole-3-carbonyl)-N-((1r,4R)-4-hydroxy-4-(trifluoromethyl)cyclohexyl)-4-azaspiro[2.5]octane-7-carboxamide [Example 529]
AC50 (His6-TEV-PPARγ-(234-505)): 10.6 nM
IC50 (UM-UC-9 engineered cells): 34.2 nM

COc1cc(-c2cc(C(=O)N3CCC(C(=O)NCC4CCc5nccn5C4)CC34CC4)n[nH]2)c(F)cn1 (mixture of isomers) [Example 356, (S)-4-(5-(5-fluoro-2-methoxypyridin-4-yl)-1H-pyrazole-3-carbonyl)-N—(((S)-5,6,7,8-tetrahydroimidazo[1,2-a]pyridin-6-yl)methyl)-4-azaspiro[2.5]octane-7-carboxamide and (S)-4-(5-(5-fluoro-2-methoxypyridin-4-yl)-1H-pyrazole-3-carbonyl)-N—(((R)-5,6,7,8-tetrahydroimidazo[1,2-a]pyridin-6-yl)methyl)-4-azaspiro[2.5]octane-7-carboxamide]
AC50 (His6-TEV-PPARγ-(234-505)): 113 nM
IC50 (UM-UC-9 engineered cells): 4790 nM

COc1cc(-c2[nH]nc(C(=O)N3CCC(C(=O)NC4CCC(C)CC4)CC3)c2F)ccn1 (mixture of isomers) [Example 102]
AC50 (His6-TEV-PPARγ-(234-505)): 321 nM
IC50 (UM-UC-9 engineered cells; Homo sapiens, UM-UC-9, 144 h): 643 nM

(1R,3s,5S)—N-(3-chlorobenzyl)-8-(5-(5-fluoro-2-methoxypyridin-4-yl)-1H-pyrazole-3-carbonyl)-8-azabicyclo[3.2.1]octane-3-carboxamide and (1R,3r,5S)—N-(3-chlorobenzyl)-8-(5-(5-fluoro-2-methoxypyridin-4-yl)-1H-pyrazole-3-carbonyl)-8-azabicyclo[3.2.1]octane-3-carboxamide [Example 160]
AC50 (His6-TEV-PPARγ-(234-505)): 11.6 nM
IC50 (UM-UC-9 engineered cells): 20.6 nM

COc1cc(-c2cc(C(=O)N3CCC(C(=O)NC4CCOc5ncccc54)CC3)n[nH]2)c(Cl)cn1 (racemic) [Example 236, 1-(5-(5-chloro-2-methoxypyridin-4-yl)-1H-pyrazole-3-carbonyl)-N (3,4-dihydro-2H-pyrano[2,3-b]pyridin-4-yl)piperidine-4-carboxamide]
AC50 (His6-TEV-PPARγ-(234-505)): 466 nM
IC50 (UM-UC-9 engineered cells; Homo sapiens, UM-UC-9, 144 h): 5360 nM

COc1cc(-c2cc(C(=O)N3CCC(C(=O)NC4(C(F)(F)F)CCCC4)CC3)n[nH]2)c(Cl)cn1 [Example 162, 1-(5-(5-chloro-2-methoxypyridin-4-yl)-1H-pyrazole-3-carbonyl)-N-(1-(trifluoromethyl)cyclopentyl)piperidine-4-carboxamide]
AC50 (His6-TEV-PPARγ-(234-505)): 588 nM
IC50 (UM-UC-9 engineered cells; Homo sapiens, UM-UC-9, 144 h): 908 nM

COc1cc(-c2cc(C(=O)N3CC[C@H](C(=O)NCC45CC(C(F)(F)F)(C4)C5)CC34CC4)[nH]n2)c(F)cn1 [Example 515, (S)-4-(3-(5-fluoro-2-methoxypyridin-4-yl)-1H-pyrazole-5-carbonyl)-N-((3-(trifluoromethyl)bicyclo[1.1.1]pentan-1-yl)methyl)-4-azaspiro[2.5]octane-7-carboxamide]
AC50 (His6-TEV-PPARγ-(234-505)): 5 nM
IC50 (UM-UC-9 engineered cells; Homo sapiens, UM-UC-9, 144 h): 6 nM

COc1cc(-c2cc(C(=O)N3CCC(C(=O)NCc4ccc5cnn(C)c5c4)CC3)n[nH]2)c(Cl)cn1 [Example 229, 1-(5-(5-chloro-2-methoxypyridin-4-yl)-1H-pyrazole-3-carbonyl)-N-((1-methyl-1H-indazol-6-yl)methyl)piperidine-4-carboxamide]
AC50 (His6-TEV-PPARγ-(234-505)): 70.6 nM
IC50 (UM-UC-9 engineered cells; Homo sapiens, UM-UC-9, 144 h): 614 nM
